Data set [1] can be described thus: Cytotoxicity against human Huh-7 cells assessed as reduction in cell viability incubated for 48 hrs by MTS assay. Format: toxicity, cell-based. Background: Formazan colour is commonly taken as a measure of viable cells.
Data set [2] relates to Human coronavirus 229E. In words: Antiviral activity against Human coronavirus 229E expressing luciferase reporter gene infected in Huh-7 cells assessed as reduction in viral replication incubated for 24 hrs by renilla luciferase based luminometer assay. Particulars: for IC50: Huh-7, 24 h. Format: functional, organism-based. A general note: A reporter such as luciferase makes a cellular process visible.

Data set [3] can be described thus: Selectivity index, ratio of CC50 for cytotoxicity against human Huh-7 cells to IC50 for antiviral activity against Human coronavirus 229E expressing luciferase reporter gene infected in Huh-7 cells. Format: toxicity, cell-based. Particulars: read-out: Ratio CC50/IC50.
Data set [4] in a line: Cytotoxicity against African green monkey Vero E6 cells assessed as reduction in cell viability incubated for 48 hrs by MTS assay. Format: toxicity, cell-based, Vero C1008. Particulars: chlorocebus sabaeus.
The subject of the next data set is SARS-CoV-2. In words: Antiviral activity against SARS-CoV-2 infected in African green monkey Vero E6 cells assessed as reduction in viral replication incubated for 48 hrs by Alexa Fluor 488 staining based flow cytometric analysis. Format: functional, organism-based, Severe acute respiratory syndrome coronavirus 2.
In data set [5] the test system is Zika virus. In words: Antiviral activity against ZIKV expressing GFP infected in African green monkey Vero E6 cells assessed as reduction in viral replication incubated for 24 hrs by flow cytometric analysis. Format: functional, organism-based. On the technique in general: Flow cytometry measures light scatter and fluorescence of single cells or particles in a stream.

A short description of data set [6]: Selectivity index, ratio of CC50 for cytotoxicity against African green monkey Vero E6 cells to IC50 for antiviral activity against ZIKV expressing GFP infected in African green monkey Vero E6 cells. Format: toxicity, cell-based. Particulars: read-out: Ratio CC50/IC50.
In the next data set the test system is Huh-7. In words: Cytotoxicity against human Huh-7 cells assessed as reduction in cell viability at 3 to 400 uM incubated for 48 hrs by MTS assay. Format: toxicity, cell-based. Particulars: huh-7, 48 h, dose 3-400 µM.
The nature of data set [7]: Cytotoxicity against human Huh-7 cells assessed as maximum non-toxic concentration at incubated for 48 hrs by MTS assay. Particulars: read-out: MNTD>90. Format: toxicity, cell-based.
The subject of data set [8] is Zika virus. In words: Antiviral activity against ZIKV expressing GFP infected in African green monkey Vero E6 cells assessed as reduction in viral replication preincubated for 2 hrs followed by dilution to sub-therapeutic level and measured after 24 hrs by flow cytometric analysis. Particulars: time 26.0 hrs. Format: functional, organism-based.
The test system of data set [9] is Zika virus. In words: Antiviral activity against ZIKV expressing GFP infected in African green monkey Vero E6 cells assessed as reduction in viral replication preincubated for 2 hrs followed by compound wash out and measured after 22 hrs by flow cytometric analysis. Format: functional, organism-based. Particulars: time 24.0 hrs.
Data set [10] deals with Zika virus. In words: Antiviral activity against ZIKV expressing GFP infected in African green monkey Vero E6 cells assessed as reduction in viral replication preincubated for 2 hrs without compound followed by compound addition and measured after 22 hrs by flow cytometric analysis. Format: functional, organism-based.
A short description of data set [11]: Selectivity index, ratio of CC50 for cytotoxicity against African green monkey Vero E6 cells to IC50 for antiviral activity against SARS-CoV-2 infected in African green monkey Vero E6 cells. Format: toxicity, cell-based. Particulars: read-out: Ratio CC50/IC50.
The subject of data set [12] is Human coronavirus 229E. In words: Antiviral activity against Human coronavirus 229E expressing luciferase reporter gene infected in Huh-7 cells assessed as reduction in viral replication at 6 uM incubated for 24 hrs by renilla luciferase based luminometer assay relative to control. Format: functional. More on the design: scale not given: the % may be the effect or the level left.

Data set [13] relates to Zika virus. In words: Antiviral activity against ZIKV expressing GFP infected in African green monkey Vero E6 cells assessed as reduction in viral replication at 20 uM incubated for 24 hrs by flow cytometric analysis relative to control. Format: functional. More on the design: scale not given: the % may be the effect or the level left.
The mark [14] stands for this setting: Zika virus, Vero C1008, 24 h, read-out: IC50.
[15] abbreviates: Severe acute respiratory syndrome coronavirus 2, Vero C1008, 48 h, read-out: IC50.

The text below walks through data of ChEMBL document CHEMBL5584292, “Targeted Isolation of Antiviral Labdane Diterpenes from the Bark of Neo-uvaria foetida (Annonaceae) using LC-MS/MS-Based Molecular Networking” (J Nat Prod, 2024).

Active and inactive are the calls of the source. The rule behind the calls is not given here.

What is called CC50 is the concentration giving 50% cytotoxicity. In general, IC50 refers to the concentration that inhibits the measured activity by half. As to `CC1(C)CCC[C@@]2(C)[C@H]1CC[C@@]1(CO)O[C@H](C3=CC(=O)OC3O)C[C@@H]12` (stereo not given in full), the CC50 at 48 h in data set [1] was determined as 46.9 µM; in [4] it was 88.3 µM. In addition, the IC50 is 15.8 µM with Human coronavirus 229E [2], “Not Active” in the data set on SARS-CoV-2 (vero e6) and 31.9 µM in the data set on Zika virus [5] (setting [14]). In addition, the selectivity ratio in [3] was 3; in [6], 2.8. The Activity result with Huh-7 is listed as “Toxic”. Moreover, the MNTC at 48 h in data set [7] was determined as 6 µM. Besides, the outcome in the data set on Zika virus [8] was inactive. In addition, the outcome in the data set on Zika virus [9] and in the data set with Zika virus [10] was Active.

With `CCC(CC)COC(=O)[C@H](C)N[P@](=O)(OC[C@H]1O[C@@](C#N)(c2ccc3c(N)ncnn23)[C@H](O)[C@@H]1O)Oc1ccccc1` [REMDESIVIR], the CC50 at 48 h in [1] is 90 µM; in [4] it was greater than 100 µM. Besides, the IC50 in the data set on Human coronavirus 229E [2] amounted to 0.04 µM; in the data set on SARS-CoV-2 (setting [15]), 25 µM. Further, the selectivity ratio was found to be 2250 in data set [3] and 4 in data set [11].

Take `CC1(C)CCC[C@@]2(C)[C@H]1CC[C@]13CO[C@@H]4OC(=O)C=C4[C@H](C[C@@H]12)O3`: the CC50 at 48 h in data set [1] was 215 µM; in data set [4] it was greater than 200 µM. Further, the IC50 is 58.8 µM in the data set on Human coronavirus 229E [2], 93.5 µM in the data set on SARS-CoV-2 (setting [15]) and “Not Active” with Zika virus [5] (vero e6). For the same compound, the selectivity ratio in data set [3] came out at 3.7; in data set [11] it was 2.1. Also, the Activity result in the data set with Huh-7 is listed as “Toxic”.

Regarding `CC1(C)CCC[C@@]2(C)[C@H]1CC[C@]1(O)COC(O)([C@@H](O)CC(=O)O)C[C@@H]12` (stereo not given in full), the results for the CC50 at 48 h in data set [1] and in data set [4] were 223 µM and greater than 200 µM, respectively. Moreover, the IC50 was greater than 100 µM in the data set on Human coronavirus 229E [2], “Not Active” in the data set on SARS-CoV-2 (vero e6) and “Not Active” with Zika virus [5] (vero e6). In addition, the Activity entry in the data set with Huh-7 is given as “Toxic”.

Consider `CC1(C)CCC[C@@]2(C)[C@H]1CC[C@]1(CO)O[C@H](C3=CC(=O)OC3O)C[C@@H]12` (stereo not given in full), for which the values for the CC50 at 48 h in data set [1] and in data set [4] were 172 µM and 200 µM, respectively. In addition, the IC50 with Human coronavirus 229E [2] was determined as 25.3 µM; in the data set with SARS-CoV-2 (setting [15]), 6.3 µM; in the data set with Zika virus [5] (setting [14]), 76 µM. Further, the selectivity ratio was 6.8 in [3], 3.2 in data set [11] and 2.6 in [6]. Moreover, the Activity entry in the data set on Huh-7 was “Toxic”. For the same compound, the outcome in the data set on Zika virus [8] was inactive. For the same compound, the outcome in the data set on Zika virus [9] and in the data set on Zika virus [10] was Active.

For `CC1(C)CCC[C@@]2(C)[C@H]1CC[C@]13COC4(CC(=O)O[C@H]4O)[C@H](C[C@@H]12)O3` (stereo not given in full), the results for the CC50 at 48 h in data set [1] and in [4] were 435 µM and greater than 200 µM, respectively. Also, the half-maximal inhibitory concentration (IC50) with Human coronavirus 229E [2] is greater than 100 µM; with SARS-CoV-2 (vero e6), “Not Active”; in the data set on Zika virus [5] (vero e6) it was “Not Active”. In addition, the Activity entry with Huh-7 was “Non-Toxic”.

For `CC(=O)OC[C@@]12CC[C@H]3C(C)(C)CCC[C@]3(C)[C@H]1C[C@@H](C1=CC(=O)OC1O)O2` (stereo not given in full), the CC50 at 48 h in data set [1] turned out to be 14 µM; in data set [4], 55.9 µM. Further, the Activity entry with Human coronavirus 229E [2] is “Dose-Dependent Effect”; in the data set with Huh-7, “Toxic”; in the data set on Human coronavirus 229E [12], 80%; in the data set on Zika virus [13] it was greater than 90%. The IC50 in the data set on Human coronavirus 229E [2] was 2.3 µM; in the data set with SARS-CoV-2 (vero e6), “Not Active”; with Zika virus [5] (setting [14]), 14.9 µM. In addition, the selectivity ratio is 6.2 in [3] and 3.8 in data set [6]. Also, the MNTC at 48 h in [7] came to 30 µM. For the same compound, in the data set with Zika virus [8], the outcome was inactive. The result in the data set on Zika virus [9] and in the data set on Zika virus [10] was Active.
